One series relates to MCF7 (Breast carcinoma). Briefly: Potential cytotoxicity by SRB assay, MCF7. The series is classed as cell-based, human. On the procedure:
(§1) Potential cytotoxicity of the complex was tested using the method of Skehan et al. (1990). The tumor cell lines: MCF7 (Breast carcinoma), HEPG2 (liver carcinoma), (10^4 cells/well) had been supplied from National Cancer Institute Cairo Egypt, were plated in 96-multiwell plat for 24 h before treatment with the compounds to allow attachment of cell to the wall of the plate.
(§2) Different concentrations of the complexes under test (0, 1, 2.5, Sand 10 μg/ml) were added to the cell-monolayer (parent complex, parent complex with Co, parent complex with Pt). Triplicate wells were prepared for each individual dose. Monolayer cells were incubated with the complex for 48 h at 37 C° and in atmosphere of 5% CO2. After 48 h, Cells were fixed, washed and stained with Sulfurhodamine B stain. Excess stain was washed with acetic acid and attached stain was recovered with Tris EDTA buffer. Color intensity was measured in an ELISA reader. […]
(§3) Cobalt and Platinum benzidinium hydrogen selenite complexes as well as their parent were investigated as potential selective, anticancer drugs. […] The results of the cytotoxic activity on human tumor cell lines were determined according to the dose values of drug exposure for cell lines to reduce survival to 50% (Ic50). The experimental results recorded in Table (5) and plots of surviving fraction versus concentration in μg in FIGS. 2, 3).

The test system of a further series is HEPG2 (liver carcinoma). Put plainly: Potential cytotoxicity by SRB assay, HEPG2. The series is classed as cell-based, human. On the procedure:
as §1, §2, §3

Series [1] is described as follows: Surface tension and critical micelle concentration (Du-Nouy tensiometer). The series is classed as physicochemical. Set-up: PC20: unit not given here. How it is done: Surface tension values of the synthesized complex solutions (parent complex, parent complex with Co, parent complex with Pt) were obtained at 30îC using Du-Nouy Tensiometer (Kruss K6 Type 4851) with a platinum ring. Apparent surface tension was measured about five times for the sample within 2 min interval between each reading. The averages of five determinations were plotted against −log C without any correction. The critical micelle concentration values were determined from the plot of surface tension versus concentration.
Table 4 summarizes the surface-active parameters such as critical micelle concentration (CMC), γCMC, and pC20 (the surfactant concentration required to reduce the surface tension of the solvent by 20 mN/m) determined from the curves of FIG. 1. Values of Γmax (the surface excess concentration of surfactant) and Amin (interfacial area occupied by the surfactant molecules) were calculated using the Gibbs adsorption equation:
Where (δγ/δ log C) is the maximum slope in each case; T is absolute temperature; R=[…] and N is Avogadro's number. The standard free energy of micellization (ΔG°mic) is calculated from the equation: ΔG°mic=RT in CMC (Eq 7)
The standard free energy of adsorption (ΔG°ads) is calculated according to the following equation: ΔG°ads=ΔG°mic−ΠCMCAmin (Eq 8)

The mark [2] stands for this setting: SRB assay, 48 h, dose reducing survival to 50%.
The mark [3] stands for this setting: in vitro on the tumor cell line investigated.
Setting [4] is: calculated using Gibbs adsorption equation.

`CCCCCCCCCC(=O)Nc1ccc(-c2ccc(N)cc2)cc1.O=[Se](O)O` [parent, N-decanoylbenzidinum hydrogen selenite]: the “MCF7 (IC50)” value with MCF7 (Breast carcinoma) (setting [2]) is on record as “−Ve”. For the same compound, the “cytotoxic activity in words, MCF7” value in the series with MCF7 (Breast carcinoma) (setting [3]) is “no effect”. Besides, the “HEPG2 (IC50)” value in the series on HEPG2 (liver carcinoma) (setting [2]) is “−Ve”. Moreover, the “cytotoxic activity in words, HEPG2” value in the series with HEPG2 (liver carcinoma) (setting [3]) is “no effect”. Besides, the ΠCMC in series [1] came to 33 mN/m. Moreover, in series [1] (setting [4]), the “Amin (interfacial area occupied by surfactant molecules)” value was 1.80 nm^2 and the “Γmax × 10^−11 (surface excess concentration)” value is on record as 9.1 × 10^−11 Mole/cm^2. Moreover, the “ΔGmic (standard free energy of micellization)” value in series [1] (calculated, Eq 7) is −27.64 KJ\mol. Moreover, in series [1] (calculated, Eq 8), the “ΔGads (standard free energy of adsorption)” value is reported as −64.21 KJ\mol. In series [1] (from plot of surface tension versus concentration), the “CMC × 10^−3 (critical micelle concentration)” value is 3.76 × 10^−3. Also, the γCMC in series [1] (surface tension at CMC) was found to be 39 mN/m. Further, the PC20 in series [1] (surfactant concentration required to reduce surface tension of solvent by 20 mN/m) was found to be 3.50.
